# Experimental data from publication PMC10510324, “A Biomimetic C-Terminal Extension Strategy for Photocaging Amidated Neuropeptides” (Journal of the American Chemical Society, 2023).
# Starred links: 1 amine or outer side, 2 acyl side, 3 side chain; linkers in the order of their positions; H or OH if unused. Non-standard residues stand in square brackets, D forms with d. Residues, ends and D or L forms follow the SMILES beside them. No end group written: not given here. X1 = COc1cc(C(CC(=O)[*:2])N[*:1])c([N+](=O)[O-])cc1OC; DMNBA = dimethoxynitrobenzyl beta-alanine, racemic
# T1: OTR (Mus musculus, UniProt P97926)
# T1 construct: from tissue; host or cells: acute mouse brain slices, PV interneurons of hippocampal CA1 and CA2 (PvalbCre; Ai14 mice)
# T1 sequence (P97926 1-388): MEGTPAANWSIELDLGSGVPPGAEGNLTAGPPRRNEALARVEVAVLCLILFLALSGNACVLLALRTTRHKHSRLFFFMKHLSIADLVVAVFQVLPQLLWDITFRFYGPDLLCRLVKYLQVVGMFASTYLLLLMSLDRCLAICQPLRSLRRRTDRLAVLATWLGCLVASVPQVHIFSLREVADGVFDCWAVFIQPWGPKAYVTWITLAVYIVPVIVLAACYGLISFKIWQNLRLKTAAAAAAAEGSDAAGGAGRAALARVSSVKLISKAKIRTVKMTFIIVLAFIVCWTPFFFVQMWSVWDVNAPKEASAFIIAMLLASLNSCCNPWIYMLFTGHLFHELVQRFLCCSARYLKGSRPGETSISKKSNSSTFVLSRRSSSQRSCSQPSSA
# How the values were obtained:
# GRPR = molecular target: T2, GRPR (Mus musculus, UniProt P21729); assay: Whole-cell recording of membrane currents, VIP interneurons of motor cortex, acute brain slices; assay type: cell-based
# T2 construct: from tissue; host or cells: acute mouse brain slices, VIP interneurons of primary motor cortex (VipCre; Ai14 mice)
# Excerpt: (§1) Photoactivatable neuropeptides are powerful tools that can drive studies into the mechanisms of endogenous receptor signaling in acute brain slices.[3],[8],[40] To determine if NPP-caged peptides are compatible with such experiments, we established electrophysiological assays for measuring the activation of GRPR, OTR, NK1R, and CCK2R in acute brain slices taken from transgenic mice. These assays involved whole cell recordings of membrane currents from genetically defined neurons located in different brain regions where endogenous receptor activation produces inward, excitatory currents that facilitate action potential firing. Neuropeptide receptor-expressing cells were identified for fluorescence-guided, targeted electrophysiological recordings using transgenic mice that contain transgenes encoding Cre-recombinase under a promotor that is specific to the cell of interest, as well as a Cre-dependent tdTomato fluorescent protein via the Ai14 (Rosa26-lsl-tdTomato) reporter strain. […]
# (§2) (A) Average inward currents over time after bath application of GRP(14-27)-NPP (3 μM, n = 5 cells from 4 mice) or GRP(14-27) (300 nM, n = 5 from 4 mice), recorded from fluorescently labeled VIP interneurons in layer 1 of the motor cortex. Data are expressed as the mean ± SEM. […] Data are expressed as the mean ± SEM. […] Data are expressed as the mean ± SEM. […] Data are expressed as the mean ± SEM. […]
# [1] = molecular target: T3, gastrin-releasing peptide receptor (GRPR) (Mus musculus, UniProt P21729); assay: GloSensor cAMP assay of GPCR activation, GRPR; assay type: cell-based; conditions: for EC50: GloSensor cAMP, n = 10 wells per data point
# T3 construct: host or cells: HEK293T
# Excerpt: To determine the effectiveness of the C-TEx caging strategy at attenuating peptide activity, we conducted a live-cell functional assay of GPCR activation in HEK293T cells transfected to express the primary receptors for each neuropeptide. The GloSensor assay reports changes in cyclic adenosine monophosphate (cAMP) signaling as a function of GPCR activation. […] To adapt this cAMP assay to report the activation of Gq-coupled GPCRs, we coexpressed a chimeric Gαs/Gαq protein (sq5) that allows Gq-coupled GPCRs to strongly engage the Gs pathway to elevate cAMP via activation of adenylyl cyclase.[39]
# Figure 3 In vitro characterization of NPP-caged neuropeptides using a functional assay of G protein signaling. (A) Dose–response curves at the gastrin-releasing peptide receptor (GRPR) using a GloSensor assay of cAMP signaling in HEK293T cells (n = 10 wells per data point). Data were normalized to the maximal response to GRP(14-27) (300 nM) and are expressed as the mean ± SEM.
# Reagent type (species) Designation Source or Identifiers
# GRPR plasmid mGRPR Genscript Clone ID OMu14220D
# OTR plasmid hOXR cdna.org Cat # OXTR000000
# CCK1R hCCK1R cdna.org Cat # CCKAR00000
# CCK2R plasmid hCCK2R cdna.org Cat # CCKBR00000
# NK1R plasmid hNK1R cdna.org Cat # TACR100000
# HEK293T cells ATCC.org Cat # CRL-3216
# GloSensor plasmid pGloSensor - Promega Cat # E2301
# GloSensor reagent cAMP Reagent Promega Product # E1291
# VIP-IRES-CRE, C57Bl/6J The Jackson background (M. musculus, VipCre Laboratory Cat # 010908
# Ai14, C57Bl/6J Rosa26-lsl- The Jackson background (M. musculus, tdTomato (Ai14) Laboratory Cat # 007914 […]
# C57Bl/6J background (M. ChatCre The Jackson Cat # 006410 musculus, male and Laboratory
# Pvalb-IRES-Cre, C57Bl/6J The Jackson background (M. musculus, PvalbCre Cat # 017320 male and female) Laboratory […]
# parent peptide. […] The solutions were illuminated in 15 sec periods, after which samples were removed and analyzed by LC-MS using a linear gradient (water/MeCN 5%/95% → MeCN 100%, 0-8 min with 0.1% formic acid) and a C-18 column (4.6 × 50 mm, 1.8 μm) (Agilent). Each compound was assessed in triplicate. […]
# OTR = molecular target: T1, OTR; assay: Whole-cell recording of membrane currents, PV interneurons of hippocampal CA1 and CA2, acute brain slices; assay type: cell-based
# Excerpt: as §1, §2
# NK1R = molecular target: T4, NK1R (Mus musculus, UniProt P30548); assay: Whole-cell recording of membrane currents, striatal cholinergic interneurons, acute brain slices; assay type: cell-based
# T4 construct: from tissue; host or cells: acute mouse brain slices, cholinergic interneurons of dorsal striatum (ChatCre; Ai14 mice)
# Excerpt: Photoactivatable neuropeptides are powerful tools that can drive studies into the mechanisms of endogenous receptor signaling in acute brain slices.[3],[8],[40] To determine if NPP-caged peptides are compatible with such experiments, we established electrophysiological assays for measuring the activation of GRPR, OTR, NK1R, and CCK2R in acute brain slices taken from transgenic mice. These assays involved whole cell recordings of membrane currents from genetically defined neurons located in different brain regions where endogenous receptor activation produces inward, excitatory currents that facilitate action potential firing. Neuropeptide receptor-expressing cells were identified for fluorescence-guided, targeted electrophysiological recordings using transgenic mice that contain transgenes encoding Cre-recombinase under a promotor that is specific to the cell of interest, as well as a Cre-dependent tdTomato fluorescent protein via the Ai14 (Rosa26-lsl-tdTomato) reporter strain.
# Our experimental framework for evaluating NPP-caged peptides in brain slices is as follows. To assess residual activity, we compared the membrane currents evoked by bath application of the parent peptide and NPP-caged peptide. To evaluate photoactivation, we compared the peak current evoked by a single, high-intensity (20–200 ms, 50–80 mW) light flash from either a 355 nm laser or 365 nm LED, to the current evoked by bath application of the parent peptide, the NPP-caged peptide without light, and NPP-peptide photoactivation in the presence of a receptor antagonist.
# (A) Average inward currents over time after bath application of GRP(14-27)-NPP (3 μM, n = 5 cells from 4 mice) or GRP(14-27) (300 nM, n = 5 from 4 mice), recorded from fluorescently labeled VIP interneurons in layer 1 of the motor cortex. Data are expressed as the mean ± SEM. (B) Average inward currents evoked by photoactivation of GRP(14-27)-NPP (3 μM) with an […] light flash in the absence (green, n = 10 cells from 4 mice) and presence of the GRPR antagonist BW1023U90 (1 μM) (black, n = 6 cells from 2 mice). […] Data are expressed as the mean ± SEM. […] Data are expressed as the mean ± SEM. […] Data are expressed as the mean ± SEM. […] Data are expressed as the mean ± SEM.
# Brain slice preparation. All procedures were performed in accordance with protocols approved by the University of California San Diego Institutional Animal Care and Use Committee (IACUC) following guidelines described in the US National Institutes of Health Guide for Care and Use of Laboratory Animals (UCSD IACUC protocol S16171). Experiments were conducted using mice of both sexes and the data were combined. From Vip Cre; Rosa26-lsl-tdTomato (Ai14), mouse age ranged from P15-30. From Pvalb Cre; Rosa26-lsl-tdTomato (Ai14), mouse age ranged from P20-35. From Chat Cre; Rosa26-lsl-tdTomato (Ai14), mouse age ranged from P40-100. Mice were anesthetized with isoﬂurane and decapitated, and the brain was removed, blocked, and mounted in a VT1000S vibratome (Leica Instruments). For recordings from cortex and striatum, coronal slices (300 μm) were prepared, and for hippocampus, horizontal slices
# [2] = molecular target: gastrin-releasing peptide receptor (UniProt P30550)
# Sequence of gastrin-releasing peptide receptor (P30550 whole entry): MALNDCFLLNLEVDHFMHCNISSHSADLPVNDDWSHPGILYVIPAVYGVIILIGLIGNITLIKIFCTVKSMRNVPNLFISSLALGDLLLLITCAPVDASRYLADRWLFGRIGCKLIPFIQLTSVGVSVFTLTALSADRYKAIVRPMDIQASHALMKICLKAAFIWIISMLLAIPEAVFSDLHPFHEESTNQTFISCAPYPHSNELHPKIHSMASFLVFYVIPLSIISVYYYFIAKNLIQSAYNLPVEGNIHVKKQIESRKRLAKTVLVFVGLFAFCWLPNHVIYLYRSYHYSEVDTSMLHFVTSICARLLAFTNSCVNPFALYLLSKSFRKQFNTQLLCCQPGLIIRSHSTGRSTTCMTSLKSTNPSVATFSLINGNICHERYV
# T3 sequence (P21729 whole entry): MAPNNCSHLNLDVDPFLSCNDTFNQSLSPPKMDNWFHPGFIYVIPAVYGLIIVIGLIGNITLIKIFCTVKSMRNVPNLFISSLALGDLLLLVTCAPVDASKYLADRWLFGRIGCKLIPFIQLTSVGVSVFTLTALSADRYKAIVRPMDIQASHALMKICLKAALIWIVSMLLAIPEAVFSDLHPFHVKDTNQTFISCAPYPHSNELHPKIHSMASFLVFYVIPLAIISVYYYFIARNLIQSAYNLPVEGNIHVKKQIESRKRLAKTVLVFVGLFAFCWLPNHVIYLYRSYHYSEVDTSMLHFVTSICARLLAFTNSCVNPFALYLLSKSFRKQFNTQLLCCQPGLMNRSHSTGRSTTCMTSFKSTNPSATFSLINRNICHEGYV
# T4 sequence (P30548 whole entry): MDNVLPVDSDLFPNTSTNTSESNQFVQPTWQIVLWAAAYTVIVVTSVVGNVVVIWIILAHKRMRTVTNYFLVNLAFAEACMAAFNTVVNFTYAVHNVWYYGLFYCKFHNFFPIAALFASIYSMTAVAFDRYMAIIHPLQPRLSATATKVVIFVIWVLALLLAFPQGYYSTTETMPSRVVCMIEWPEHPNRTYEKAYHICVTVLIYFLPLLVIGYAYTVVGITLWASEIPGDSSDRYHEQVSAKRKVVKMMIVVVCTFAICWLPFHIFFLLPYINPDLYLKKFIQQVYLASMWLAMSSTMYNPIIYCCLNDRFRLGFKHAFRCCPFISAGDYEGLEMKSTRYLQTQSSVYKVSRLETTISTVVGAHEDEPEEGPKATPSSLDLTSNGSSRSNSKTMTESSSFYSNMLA
# T2 sequence (P21729 whole entry): as the sequence (P21729 whole entry) above
molecule,measurement,setting,value
3-Phenylpropanoyl-His-Trp-Ala-Val-D-Ala-His-D-Pro-CH2NH-Phe-NH2 [BW1023U90],block of light-evoked GRP(14-27)-NPP current,GRPR; antagonist 1 μM,completely blocked
"CSCC[C@H](NC(=O)[C@H](CC(C)C)NC(=O)[C@H](Cc1c[nH]cn1)NC(=O)CNC(=O)[C@@H](NC(=O)[C@H](C)NC(=O)[C@H](Cc1c[nH]c2ccccc12)NC(=O)[C@H](Cc1c[nH]cn1)NC(=O)[C@H](CC(N)=O)NC(=O)CNC(=O)[C@H](CCCNC(=N)N)NC(=O)[C@@H]1CCCN1C(=O)[C@H](Cc1ccc(O)cc1)NC(=O)[C@@H](N)CCSC)C(C)C)C(N)=O [GRP(14-27), Gastrin-releasing peptide (14-27)]",EC50,"[1]; HEK293T cells coexpressing chimeric Gαs/Gαq (sq5), normalized to GRP(14-27) 300 nM",0.0006 µM
same,"peak current amplitude, bath application","GRPR; 300 nM, n = 5 cells from 4 mice, held at −55 mV, mean ± SEM",−62.8 ± 12.8
COc1cc(C(CC(=O)N[C@@H](CCCNC(=N)N)C(=O)N[C@@H](CCCCN)C(=O)N2CCC[C@H]2C(=O)N[C@@H](CCC(=O)O)C(=O)N[C@@H](CCCCN)C(=O)O)NC(=O)[C@H](CCSC)NC(=O)[C@H](CC(C)C)NC(=O)[C@H](Cc2c[nH]cn2)NC(=O)CNC(=O)[C@@H](NC(=O)[C@H](C)NC(=O)[C@H](Cc2c[nH]c3ccccc23)NC(=O)[C@H](Cc2c[nH]cn2)NC(=O)[C@H](CC(N)=O)NC(=O)CNC(=O)[C@H](CCCNC(=N)N)NC(=O)[C@@H]2CCCN2C(=O)[C@H](Cc2ccc(O)cc2)NC(=O)[C@@H](N)CCSC)C(C)C)c([N+](=O)[O-])cc1OC (stereo partly drawn) [GRP(14-27)-NPP] (H-MYPRGNHWAVGHLM[X1]RKPEK-OH),EC50,"[1]; HEK293T cells coexpressing sq5, no light",6.1 µM
same,reduction of EC50 (potency) at the GRPR by NPP-caging,[1]; caged versus parent peptide,"~10,000 fold"
"CC[C@H](C)[C@@H]1NC(=O)[C@H](Cc2ccc(O)cc2)NC(=O)[C@@H](N)CSSC[C@@H](C(=O)N2CCC[C@H]2C(=O)N[C@@H](CC(C)C)C(=O)NCC(N)=O)NC(=O)[C@H](CC(N)=O)NC(=O)[C@H](CCC(N)=O)NC1=O [OT, Oxytocin]","peak current amplitude, bath application","OTR; 300 nM, n = 7 from 4 mice, held at -70 mV, mean ± SEM",−35.8 ± 5.7
"COc1ccccc1CC(=N)N1C[C@@H]2C(=O)CCC(c3ccccc3)(c3ccccc3)[C@@H]2C1 [RP67580, (3aR,7aR)-Octahydro-2-[1-imino-2-(2-methoxyphenyl)ethyl]-7,7-diphenyl-4H-isoindol]",block of light-evoked SP-NPP current,NK1R; antagonist 10 μM,largely blocked
"(d(CH2)5^1,Tyr(Me)^2,Thr^4,Orn^8,des-Gly-NH2^9)-Vasotocin [OTA]",block of light-evoked OT-NPP current,OTR; antagonist 1 μM,blocked
SP-NPP: NPP-caged substance P,"peak current amplitude, bath application without light","NK1R; 1 μM, 1:1 mixture of diastereomers, n = 6 cells from 5 mice, mean ± SEM",−5.2 ± 13.6
same,"peak current amplitude, photoactivation (+ UV)","NK1R; 1 μM, 1 × 20 ms, 84 mW, 365 nm LED, n = 5 cells from 5 mice, mean ± SEM",−265.5 ± 19.7
same,activity on bath application without light,"NK1R; 3 μM as printed in the text, 1:1 mixture of diastereomers",inactive
same,τon of light-evoked current,"NK1R; 1 × 20 ms, 84 mW, 365 nm LED",1.1 s
same,τoff slow of light-evoked current,"NK1R; 1 × 20 ms, 84 mW, 365 nm LED, biphasic decay",19.5 s
"MYPRGNHWAVGHLM[DMNBA]RKPEK (also: DMNBA racemic, diastereomers not resolved) [GRP(14-27)-NPP]","EC50 of receptor activation, GloSensor cAMP assay in HEK293T cells co-expressing the chimeric Gαs/Gαq protein sq5",[2],6.1 µM
MYPRGNHWAVGHLM-NH2 [gastrin-releasing peptide (14-27)],"EC50 of receptor activation, GloSensor cAMP assay in HEK293T cells co-expressing the chimeric Gαs/Gαq protein sq5",[2],0.0006 µM
